For 91 molecules, IC50 results are on record in PubChem BioAssay AID517 (Columbia University Molecular Screening Center, 2006).

Active and inactive are the calls of the source.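 Rule for the calls: active = activity score of 15 or more, from fitted potency or summed per-dose inhibition z-scores, roughly IC50 of 5 µM; inactive = the rest.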 Bounds are passed on as bounds.

This test has as its system HUVEC TNFalpha-induced E-selectin immunofluorescence imaging. Briefly: E-selectin expression inhibitors, dose response, confirmation, imaging, HUVEC, immunofluorescence, TNFalpha stimulation (AID 517).
As for `CC1CCN(C(=O)CSc2nc3ccccc3[nH]2)CC1`, the IC50 was > 8 µM (inactive).

Regarding `O=C(COn1nnc2ccc(C(F)(F)F)cc21)Nc1nnc(-c2ccccc2)o1`, the IC50 is > 8 µM (inactive).

Consider `Cc1cc(NC(=O)CS(=O)(=O)c2cn(Cc3ccccc3Cl)c3ccccc23)no1`, for which the IC50 was > 8 µM (inactive). Then `CCn1c(=O)n(CC(=O)N(C)Cc2ccccc2)c(=O)c2ccccc21`, with > 8 µM (inactive); and `O=C(O)C1C2CCC(C2)C1C(=O)NCCCn1ccnc1` (stereo unspecified), with > 8 µM (inactive). Then `O=C1CC(c2ccc(S(=O)(=O)N3CCN(c4ccccc4)CC3)cc2)CN1` (stereo unspecified), with > 8 µM (inactive); and `CC1(C)CC(=O)C(C=NC(CCC(N)=O)C(=O)O)=C(O)C1` (stereo unspecified), with > 8 µM (inactive). Then `Cc1nnc(SCCn2c(N3CC(C)CC(C)C3)nc3c2c(=O)n(C)c(=O)n3C)s1` (stereo unspecified), with > 8 µM (inactive); and `Cc1cnc(NC(=O)CSc2nc3ccccc3c(=O)[nH]2)s1`, with > 8 µM (inactive).

Regarding `CN(C(=O)c1ccc2c(=O)n3c(nc2c1)CCCCC3)c1ccccc1`, the IC50 is > 8 µM (inactive). `CCn1c(=N)n(CC(=O)c2ccco2)c2ccccc21`: the IC50 is > 8 µM (inactive).

On to `CC1CCN(CCC(=O)Nc2ccc(Br)cc2)CC1`, for which the IC50 is > 8 µM (inactive).

For the molecule `Cc1ccc(SC(C)c2nc(-c3ccccc3)no2)cc1` (stereo unspecified), the IC50 was > 8 µM (inactive). Then `COc1ccc(Cl)cc1NC(=O)CSc1nncn1-c1cccnc1`, with > 8 µM (inactive).

As to `N#CCCn1cnc2ccccc21`, the IC50 was > 8 µM (inactive). In the case of `O=C(NCCN1CCOCC1)c1ccc(=O)oc1`, the IC50 was > 8 µM (inactive). Then `FC(F)Oc1ccc(-c2csc(Cc3nnc4n3CCCCC4)n2)cc1`, with > 8 µM (inactive). As to `COc1ccc(OC(=O)c2cc3ccccc3o2)cc1`, the IC50 is > 8 µM (inactive). Then `O=C(NCCCN1CCCC1=O)c1cncc(Br)c1`, with > 8 µM (inactive); and `Cc1ccc(C)c(-n2c(Cc3cc(=O)[nH]c(=O)[nH]3)nnc2SCC(=O)NCc2ccco2)c1`, with > 8 µM (inactive); and `COC(=O)CCC(=O)Nc1cccc(Br)c1`, with > 8 µM (inactive).

As for `Cc1cc2oc(=O)cc(CN3CCCCC3)c2cc1C(C)C`, the IC50 is > 8 µM (inactive).

Consider `COc1ccc(Cc2nc3ccc(S(N)(=O)=O)cc3[nH]2)cc1OC`, for which the IC50 was > 8 µM (inactive).

For `COc1ccc(CCN2C(=O)CC(N3CCN(S(=O)(=O)c4ccccc4)CC3)C2=O)cc1` (stereo unspecified), the IC50 was > 8 µM (inactive). Then `Cn1cccc1Cc1nnc(SCC(=O)N2CCOCC2)n1-c1ccc(F)cc1`, with > 8 µM (inactive). Then `O=C(O)CC1CCCC(c2ccccc2)C1=O` (stereo unspecified), with > 8 µM (inactive); and `CC(=O)Nc1sc2c(c1CN1CCN(c3ccccn3)CC1)CCCC2`, with > 8 µM (inactive); and `CCOC(=O)c1sc(NC(=O)CSc2n[nH]c(-c3ccccc3)n2)c(C#N)c1C`, with > 8 µM (inactive).

For the molecule `Nc1c2c(nc3ccccc13)N(c1ccccc1)CC2`, the IC50 is > 8 µM (inactive).

Consider `O=C1COc2ccc(C(=O)NCc3ccco3)cc2N1`, for which the IC50 was > 8 µM (inactive). Then `O=C(CSc1ccc(-c2ccccc2)nn1)N1CCOCC1`, with > 8 µM (inactive); and `Cc1ccc(Nc2nc(N)nc(CN3CCCCCC3)n2)cc1`, with > 8 µM (inactive); and `COc1ccccc1OCC(O)COC(N)=O` (stereo unspecified), with > 8 µM (inactive). Then `COC(=O)C1=C(C)NC(C)=C(C(=O)OC)C1C(=O)OC1CCCCC1=O` (stereo unspecified), with > 8 µM (inactive). Then `COc1ccc(OC)c2[nH]c(=O)c(CCNC(=O)CC(C)C)cc12`, with > 8 µM (inactive); and `O=C(Nc1ccc2[nH]c3c(c2c1)CCCC3)c1ccco1`, with > 8 µM (inactive); and `CCOC(=O)C1CCCN(C(=O)c2sc3nc(-c4ccccc4)cn3c2C)C1` (stereo unspecified), with > 8 µM (inactive). Consider `N#Cc1c(NCc2ccccc2)ccnc1NCc1cccnc1`, for which the IC50 is > 8 µM (inactive). On to `Cc1cc(N2C(=O)C3C4C=CC(C4)C3C2=O)ccc1Br` (stereo unspecified), for which the IC50 was > 8 µM (inactive).

Take `CC(C)C(C(=O)Nc1ccc2c(c1)OCO2)N1C(=O)c2ccccc2C1=O` (stereo unspecified): the IC50 was > 8 µM (inactive).

In the case of `Cc1ccc2[nH]c(=O)c(CN(CCc3ccccc3)Cc3nnnn3CC3CCCO3)cc2c1` (stereo unspecified), the IC50 was > 8 µM (inactive).

As to `O=C(OCc1ccc2c(c1)OCO2)c1ccc(S(=O)(=O)N2CCCCC2)cc1`, the IC50 is > 8 µM (inactive). Then `O=S1(=O)C=C(Sc2nc3ccccc3s2)c2ccccc21`, with 1.85 µM; and `O=C(Nc1ccc(SC(F)F)cc1)c1ccc2nccnc2c1`, with > 8 µM (inactive). Then `COc1ccc(CCn2c(O)c(C=NCc3cccnc3)c(=O)[nH]c2=O)cc1OC`, with > 8 µM (inactive); and `C=CS(=O)(=O)c1ccc(Oc2ccc(S(=O)(=O)C=C)cc2)cc1`, with 0.55 µM; and `CCN(CC)CCCNC(=O)c1cn(C)c2ccc(S(=O)(=O)N(C)C)cc2c1=O`, with > 8 µM (inactive). Then `COc1cccc2c1C(=O)c1c(O)c3c(c(O)c1C2=O)C[C@@](O)(C(C)=O)C[C@@H]3O[C@H]1C[C@H](N)[C@H](O)[C@H](C)O1`, with 0.63 µM; and `Cc1c(NC2=NC3(CCCCC3)Cc3ccccc32)c(=O)n(-c2ccccc2)n1C`, with > 8 µM (inactive). With `CC[C@H]1CN2CCc3cc(OC)c(OC)cc3[C@@H]2C[C@@H]1C[C@H]1NCCc2cc(OC)c(OC)cc21`, the 50% inhibitory concentration (IC50) was 0.08 µM. Then `Fc1cc(F)c(F)c(SCCc2ccncc2)c1F`, with > 8 µM (inactive); and `CCCCSc1nc(O)c(C2OC(=O)c3c2ccc(OC)c3OC)c(=O)n1C` (stereo unspecified), with > 8 µM (inactive); and `COc1ccc(CCNC(=O)C2=COCCO2)cc1`, with > 8 µM (inactive). Then `C[C@H]1CCC/C=C/C2C[C@H](O)CC2[C@H](O)/C=C/C(=O)O1` (stereo partly specified), with < 0.01 µM. Then `Cc1cc2c(cc1C)-c1nnnn1C(C)(C)C2`, with > 8 µM (inactive); and `CCN(CC(=O)NC(=O)NCc1ccco1)Cc1nc2ccccc2c(=O)[nH]1`, with > 8 µM (inactive); and `C=CCNc1nc(C)nc(OC)n1`, with > 8 µM (inactive). Consider `Cc1c(O)c(CN2CCCC2)cc2c1oc(=O)c1ccccc12`, for which the IC50 is > 8 µM (inactive).

With `Cc1oc(-c2ccccc2Cl)nc1CSCC(=O)N1CCCC1`, the IC50 was > 8 µM (inactive). Then `CC1=CC=CC2=NC(=O)CC(C)(C(=O)N(CC(=O)NC(C)C)C3CCCC3)N12` (stereo unspecified), with > 8 µM (inactive); and `CCN(CC)S(=O)(=O)c1ccc2[nH]cc(C(=O)NCCC3=CCCCC3)c(=O)c2c1`, with > 8 µM (inactive).

In the case of `O=C(c1ccc2c3c(cccc13)C(=O)N(O)C2=O)N1CCCCC1`, the IC50 is > 8 µM (inactive).

In the case of `O=C(Cc1cccs1)NCc1ccc(F)cc1`, the IC50 is > 8 µM (inactive). Then `COc1cccc2c1C(=O)c1c(O)c3c(c(O)c1C2=O)C[C@@](O)(C(=O)CO)C[C@@H]3O[C@H]1C[C@H](N)[C@H](O)[C@H](C)O1`, with 3.2 µM; and `O=c1c2ccccc2nc(SCc2cn3ccsc3n2)n1-c1ccc(F)cc1`, with > 8 µM (inactive). As for `COc1ccc(C(=O)CSc2nnc(C3CCCCC3)n2N)c(OC)c1`, the IC50 is > 8 µM (inactive). Then `COCCn1c(=O)[nH]c2cc(C(=O)NCc3cccnc3)ccc2c1=O`, with > 8 µM (inactive); and `COc1ccc2c(C)nc(Nc3nc(C)cc(C)n3)nc2c1`, with > 8 µM (inactive); and `Cc1ccc(O)c(C(=O)c2cc(C#N)c(=O)n(CC3CCCO3)c2)c1` (stereo unspecified), with > 8 µM (inactive).

For the molecule `Cc1ccc(N=C2NC(=O)CS2)c(C)c1`, the IC50 was > 8 µM (inactive). For `Cc1nc2ccccc2nc1OCC(=O)Nc1cc(C(F)(F)F)ccc1N1CCOCC1`, the IC50 is > 8 µM (inactive). On to `O=C1c2ccccc2S(=O)(=O)N1Cc1nnc(-c2ccccc2Br)o1`, for which the IC50 is > 8 µM (inactive). Then `Cc1cc(C)n(C2=NS(=O)(=O)c3ccccc32)n1`, with > 8 µM (inactive); and `O=c1cc(NCc2ccccc2)nc2n1CCCS2`, with > 8 µM (inactive).

In the case of `CN(CCc1ccccn1)c1ncnc2[nH]ncc12`, the IC50 is > 8 µM (inactive). Then `OC1C[N+]2(CCCCC2)C1`, with > 8 µM (inactive); and `FC(F)Oc1cccc2cccnc12`, with > 8 µM (inactive); and `O=C(Nc1cccc(F)c1)c1ccc2c(c1)OCO2`, with > 8 µM (inactive). Then `C=CCOC(=O)COc1cc(C)cc2oc(=O)c3c(c12)CCC3`, with > 8 µM (inactive); and `CC(C)Cn1c(=O)c(C(=O)Nc2ccccc2S(N)(=O)=O)c(O)c2ccccc21`, with > 8 µM (inactive); and `CC1CN(C(=O)CSc2nnc(-c3ccncc3)n2-c2ccccc2)CC(C)O1` (stereo unspecified), with > 8 µM (inactive).

On to `COc1ccccc1-c1c(C)nn2c(C)c(C(C)=O)cnc12`, for which the IC50 is > 8 µM (inactive). Then `COc1ccc(NC(=O)CSc2nnc(-c3ccccc3C)n2C)cc1`, with > 8 µM (inactive).

`COc1ccc(-c2nnc(-c3cccs3)o2)cc1OC`: the IC50 was > 8 µM (inactive). Then `CN(Cc1ccccc1)Cc1nc2c([nH]1)c(=O)[nH]c(=O)n2C`, with > 8 µM (inactive). Regarding `CC1Oc2ccccc2N(CC(=O)N(Cc2ccccc2)Cc2ccccn2)C1=O` (stereo unspecified), the IC50 is > 8 µM (inactive). Then `O=C1CC(N2CCN(c3cccc(C(F)(F)F)c3)CC2)C(=O)N1c1ccccc1` (stereo unspecified), with > 8 µM (inactive); and `Cc1cc(NC(=O)COC(=O)c2cccc(S(=O)(=O)N3CCOCC3)c2)no1`, with > 8 µM (inactive); and `C=CCn1c(-c2ccccc2)n[nH]c1=S`, with > 8 µM (inactive). Then `CCOC(=O)C1CCCN(C(=O)c2cc3c(=O)n4cccc(C)c4nc3n2C)C1` (stereo unspecified), with > 8 µM (inactive). As to `COCCNC(=O)C1CCCN(c2ncccn2)C1` (stereo unspecified), the IC50 was > 8 µM (inactive).
